Test: Adverse events and dose-limiting toxicity (NCI-CTCAE v 4.03), MRZ ± BEV in recurrent grade IV malignant glioma patients
Format: in vivo, human
Text: An adverse event (AE) is any noxious, unintended, or untoward medical occurrence that may appear or worsen in a subject during the course of a study. […] Any worsening (i.e., any clinically significant adverse change in the frequency or intensity of a pre-existing condition) should be considered an AE.
The severity/intensity of AEs will be graded based upon the subject's symptoms according to the current active minor version of the Common Terminology Criteria for Adverse Events ( ).

[1] = MRZ 0.7 mg/m^2 + BEV, Cohort 2 (N = 3)
[2] = MRZ 0.8 mg/m^2 + BEV, Cohorts 3 & 4 (N = 27)
[3] = MRZ 0.8 mg/m^2, + BEV N = 27, Monotherapy N = 30
[4] = MRZ 0.8 mg/m^2 Monotherapy (N = 30)

C[C@@]12OC(=O)[C@]1([C@@H](O)[C@@H]1C=CCCC1)NC(=O)[C@@H]2CCCl [MRZ, marizomib]
7: Confusional state, patients [3] | Diarrhoea, patients [3] | Platelet count decreased, patients [3] | Diarrhoea MRZ Related, patients [4] | Vomiting MRZ Related, patients [4] | Confusional State: patients, Total (Part 1 N = 36, Part 2 N = 30) | Diarrhea: patients, Total (Part 1 N = 36, Part 2 N = 30)
(23.3%): Confusional state [3] | Diarrhoea [3] | Platelet count decreased [3]
4: Fall, patients [3] | Hypertension, patients [3] | Confusional State: patients, worst Grade 2 (Part 1 N = 36, Part 2 N = 30) | Dizziness: patients, worst Grade 1 (Part 1 N = 36, Part 2 N = 30) | Fall: patients, Total (Part 1 N = 36, Part 2 N = 30)
3: Grade ≥3 Headache related to the labelled drug, patients [2] | Infusion site pain, patients [3] | Dizziness MRZ Related, patients [4] | Ataxia: patients, worst Grade 1 (Part 1 N = 36, Part 2 N = 30) | Confusional State: patients, worst Grade 1 (Part 1 N = 36, Part 2 N = 30) | Fall: patients, worst Grade 1 (Part 1 N = 36, Part 2 N = 30)
(40.0%): Hallucination [3] | Headache [3]
(16.7%): Dizziness [3] | Dysarthria [3] | Ataxia MRZ Related [4]
(36.7%): Nausea [3] | Hallucination MRZ Related [4] | Headache MRZ Related [4]
0: Grade ≥3 Ataxia related to the labelled drug, patients [1] | Grade ≥3 Confusional State related to the labelled drug, patients [1] | Grade ≥3 Delusion related to the labelled drug, patients [1] | Grade ≥3 Dyspnea related to the labelled drug, patients [1] | Grade ≥3 Embolism related to the labelled drug, patients [1] | Grade ≥3 Fall related to the labelled drug, patients [1] | Grade ≥3 Fatigue related to the labelled drug, patients [1] | Grade ≥3 Hallucination related to the labelled drug, patients [1] | Grade ≥3 Headache related to the labelled drug, patients [1] | Grade ≥3 Hypertension related to the labelled drug, patients [1] | Grade ≥3 Hyponatremia related to the labelled drug, patients [1] | Grade ≥3 Insomnia related to the labelled drug, patients [1] | Grade ≥3 Intracranial Hemorrhage related to the labelled drug, patients [1] | Grade ≥3 Optic Nerve Disorder related to the labelled drug, patients [1] | Grade ≥3 Proteinuria related to the labelled drug, patients [1] | Grade ≥3 Confusional State related to the labelled drug, patients [2] | Grade ≥3 Embolism related to the labelled drug, patients [2] | Grade ≥3 Hypertension related to the labelled drug, patients [2] | Grade ≥3 Intracranial Hemorrhage related to the labelled drug, patients [2] | Grade ≥3 Optic Nerve Disorder related to the labelled drug, patients [2] | Grade ≥3 Proteinuria related to the labelled drug, patients [2] | Dysphonia MRZ Related, patients [4] | Muscular weakness MRZ Related, patients [4] | Platelet count decreased MRZ Related, patients [4] | Stomatitis MRZ Related, patients [4] | Upper-airway cough syndrome MRZ Related, patients [4]
(3.3%): Dysphonia [3] | Epistaxis MRZ Related [4] | Fall MRZ Related [4]
(6.7%): Epistaxis [3] | Infusion site pain MRZ Related [4]
9: Constipation, patients [3] | Vomiting, patients [3] | Nausea MRZ Related, patients [4]
93.3%): Hypertension MRZ Related [4]
12: Hallucination, patients [3] | Headache, patients [3]
(30.0%): Constipation [3] | Vomiting [3] | Nausea MRZ Related [4]
(16.7%: Anaemia MRZ Related [4]
(10.0%): Infusion site pain [3] | Dizziness MRZ Related [4]
18: Fatigue MRZ Related, patients [4]
(60.0%): Fatigue MRZ Related [4]
1: Grade ≥3 Ataxia related to the labelled drug, patients [2] | Grade ≥3 Delusion related to the labelled drug, patients [2] | Grade ≥3 Dyspnea related to the labelled drug, patients [2] | Grade ≥3 Fall related to the labelled drug, patients [2] | Grade ≥3 Fatigue related to the labelled drug, patients [2] | Grade ≥3 Hallucination related to the labelled drug, patients [2] | Grade ≥3 Hyponatremia related to the labelled drug, patients [2] | Grade ≥3 Insomnia related to the labelled drug, patients [2] | Dysphonia, patients [3] | Epistaxis MRZ Related, patients [4] | Fall MRZ Related, patients [4] | Hypertension MRZ Related, patients [4] | Anemia: patients, worst Grade 2 (Part 1 N = 36, Part 2 N = 30) | Diarrhea: patients, worst Grade 3 (Part 1 N = 36, Part 2 N = 30) | Dizziness: patients, worst Grade 2 (Part 1 N = 36, Part 2 N = 30) | Dysphonia: patients, Total (Part 1 N = 36, Part 2 N = 30) | Dysphonia: patients, worst Grade 1 (Part 1 N = 36, Part 2 N = 30)
10: Constipation: patients, Total (Part 1 N = 36, Part 2 N = 30) | Constipation: patients, worst Grade 1 (Part 1 N = 36, Part 2 N = 30)
5: Dizziness, patients [3] | Dysarthria, patients [3] | Anaemia MRZ Related, patients [4] | Ataxia MRZ Related, patients [4] | Anemia: patients, worst Grade 1 (Part 1 N = 36, Part 2 N = 30) | Ataxia: patients, worst Grade 2 (Part 1 N = 36, Part 2 N = 30) | Dizziness: patients, Total (Part 1 N = 36, Part 2 N = 30)
(46.7%): Insomnia [3]
14: Insomnia, patients [3]
(13.3%): Fall [3] | Hypertension [3]
(23.3) %: Diarrhoea MRZ Related [4] | Vomiting MRZ Related [4]
8: Hyperglycaemia, patients [3] | Hypokalemia, patients [3] | Ataxia: patients, Total (Part 1 N = 36, Part 2 N = 30)
2: Epistaxis, patients [3] | Infusion site pain MRZ Related, patients [4] | Epistaxis: patients, Total (Part 1 N = 36, Part 2 N = 30) | Epistaxis: patients, worst Grade 1 (Part 1 N = 36, Part 2 N = 30)
(20.0%): Anaemia [3] | Ataxia [3] | Confusional state MRZ Related [4] | Constipation MRZ Related [4]
6: Anaemia, patients [3] | Ataxia, patients [3] | Confusional state MRZ Related, patients [4] | Constipation MRZ Related, patients [4] | Anemia: patients, Total (Part 1 N = 36, Part 2 N = 30) | Diarrhea: patients, worst Grade 1 (Part 1 N = 36, Part 2 N = 30)
19: Fatigue, patients [3]
11: Nausea, patients [3] | Hallucination MRZ Related, patients [4] | Headache MRZ Related, patients [4]
(63.3%): Fatigue [3]
(27.6%): Hyperglycaemia [3] | Hypokalemia [3]

— patent US20200085789A1, “USE OF A PROTEASOME INHIBITOR FOR THE TREATMENT OF CENTRAL NERVOUS SYSTEM (CNS) CANCERS” (Celgene International II Sàrl, priority 2017, published 2020)
